Common to all, as to test: combination Emax (second highest fraction inhibited in the dose matrix, 72 h); higher = more inhibition; extreme values may be limits of the assay
For experiment [1], the system named is KARPAS-422 (B-Cell Non-Hodgkin's Lymphoma). The method, boiled down:
(§1)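 Cell lines in DMEM/F12 or RPMI with 10% FBS were plated in 1536-well plates, held 24 hours at 37°C, 5% CO2, then given two-drug dose matrices for 72 hours (DMSO typically 0.2%). Viability was read by CellTiter-Glo 2.0 luminescence and scaled as inhibition from 0 (vehicle wells) to 1 (blank wells). Combination Emax is the second-highest inhibition in the matrix; Bliss excess is observed combination effect minus expected EA + EB − EA·EB, EA and EB being single-agent effects.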

Experiment [2] has as its system NCI-H2066 (Squamous Cell Lung Carcinoma). The procedure, abridged:
as §1

For experiment [3], the system named is COR-L311 (Small Cell Lung Carcinoma). The procedure, abridged: as §1
The subject of experiment [4] is TT2609-C02 (Thyroid Gland Carcinoma). The method, boiled down:
as §1

The subject of experiment [5] is PA-1 (Ovarian Carcinoma). The procedure, abridged:
as §1

Experiment [6] concerns BICR22 (Oral Cavity Carcinoma). The method, boiled down:
as §1

The test system of experiment [7] is LN-405 (Glioblastoma). The method, boiled down: as §1
For experiment [8], the system named is NCI-H64 (Small Cell Lung Carcinoma). The procedure, abridged:
as §1

Experiment [9] relates to FU97 (Gastric Carcinoma). The procedure, abridged:
as §1

Experiment [10] concerns A549 (Lung Adenocarcinoma). The method, boiled down: as §1
For experiment [11], the system named is CAS-1 (Glioblastoma). The procedure, abridged: as §1
For experiment [12], the system named is U-2-OS (Osteosarcoma). The method, boiled down: as §1
The test system of experiment [13] is CAPAN-2 (Pancreatic Carcinoma). The method, boiled down: as §1
Experiment [14] concerns ONS-76 (Other Solid Carcinomas). The method, boiled down:
as §1

Experiment [15] relates to COLO-320-HSR (Colorectal Carcinoma). The procedure, abridged:
as §1

Experiment [16] concerns HCC1954 (Breast Carcinoma). The method, boiled down: as §1
The test system of experiment [17] is NCI-H1650 (Lung Adenocarcinoma). The procedure, abridged:
as §1

In experiment [18] the test system is ECC10 (Gastric Carcinoma). The procedure, abridged:
as §1

The subject of experiment [19] is SK-MES-1 (Squamous Cell Lung Carcinoma). The method, boiled down:
as §1

The test system of experiment [20] is OS-RC-2 (Kidney Carcinoma). The method, boiled down: as §1

Structures are written as SMILES.

With `COc1cccc(OCCCN)c1-c1cc(Nc2cnc(C#N)cn2)n[nH]1` [Prexasertib] + O=C(c1cc(Cc2n[nH]c(=O)c3ccccc23)ccc1F)N1CCN(C(=O)C2CC2)CC1 [Olaparib] (first compound max 1 µM, 7x7, partner max 10 µM), the “combination Emax” value in experiment [1] was 0.92; in experiment [2], 0.316; in experiment [3], 0.803; in experiment [4] it was 0.329; in experiment [5] it was 0.706; in [6], 0.78. The “combination Emax” value in [7] was determined as 0.592; in experiment [8], 0.835; in experiment [9], 0.299; in [10], 0.614; in experiment [11], 0.588; in [12] it was 0.908. The “combination Emax” value in experiment [13] worked out at 0.337; in experiment [14], 0.793; in experiment [15], 0.522; in experiment [16], 0.866; in [17], 0.494; in experiment [18], 0.728. Further, the “combination Emax” value in experiment [19] turned out to be 0.834; in experiment [20], 0.475.
As to `COc1cc2c(cc1OCCCCCOc1cc3c(cc1OC)C(=O)N1C=C(C)C[C@H]1C=N3)N=C[C@@H]1CC(C)=CN1C2=O` [SG3199] + O=C(c1cc(Cc2n[nH]c(=O)c3ccccc23)ccc1F)N1CCN(C(=O)C2CC2)CC1 [Olaparib] (first compound max 0.001 µM, 7x7, partner max 10 µM), the “combination Emax” value came to 0.258 in experiment [1]; 0.108 in experiment [2]; 0.515 in experiment [3]; 0.166 in experiment [4]; 0.324 in experiment [5]; 0.124 in experiment [6]. Also, the “combination Emax” value in experiment [7] was determined as 0.301; in experiment [8], 0.0693; in experiment [9], 0.156; in experiment [10], 0.234; in experiment [11] it was 0.235; in experiment [12] it was 0.0914. The “combination Emax” value worked out at 0.0949 in [13]; 0.206 in experiment [14]; 0.061 in [15]; 0.165 in experiment [16]; 0.0953 in experiment [17]; 0.102 in experiment [18]. The “combination Emax” value in experiment [19] worked out at 0.103; in [20], 0.0448.
As to `CCc1c2c(nc3ccc(O)cc13)-c1cc3c(c(=O)n1C2)COC(=O)[C@]3(O)CC` [SN-38] + CN(C)CCCOc1ccc(-c2ccc3ncc4c(c3c2)n(C2CCOCC2)c(=O)n4C)cn1 [AZD0156] (first compound max 0.3 µM, 7x7, partner max 1 µM), the “combination Emax” value was determined as 0.937 in experiment [1]; 0.154 in experiment [2]; 0.821 in [3]; 0.441 in experiment [4]; 0.845 in experiment [5]; 0.907 in [6]. In addition, the “combination Emax” value in [7] is 0.259; in experiment [8], 0.407; in experiment [9], 0.187; in experiment [10], 0.755; in experiment [11] it was 0.494; in [12], 0.0889. The “combination Emax” value worked out at 0.206 in experiment [13]; 0.805 in [14]; 0.284 in [15]; 0.376 in [16]; 0.501 in experiment [17]; 0.945 in [18]. Besides, the “combination Emax” value is 0.804 in experiment [19] and 0.443 in experiment [20].
As for `C[C@@H](c1ccc2nccn2c1)n1nnc2ncc(-c3cnn(C)c3)nc21` [Savolitinib] + CC1(C)CCC(CN2CCN(c3ccc(C(=O)NS(=O)(=O)c4ccc(NCC5CCOCC5)c([N+](=O)[O-])c4)c(Oc4cnc5[nH]ccc5c4)c3)CC2)=C(c2ccc(Cl)cc2)C1 [Venetoclax] (first compound max 1 µM, 7x7, partner max 1 µM), the “combination Emax” value in experiment [1] turned out to be 0.257; in experiment [2] it was 0.195; in [3], 0.525; in experiment [4] it was 0.0924; in experiment [5], 0.276; in experiment [6], 0.108. Further, the “combination Emax” value stood at 0.173 in experiment [7]; 0.23 in experiment [8]; 0.13 in [9]; 0.142 in experiment [10]; 0.212 in experiment [11]; 0.125 in experiment [12]. The “combination Emax” value in experiment [13] stood at 0.0542; in experiment [14], 0.118; in experiment [15], 0.213; in experiment [16], 0.136; in [17] it was 0.127; in experiment [18], 0.5. Also, the figures for the “combination Emax” value in experiment [19] and in experiment [20] were 0.0772 and 0.145, respectively.
Regarding `C[C@@H](c1ccc2nccn2c1)n1nnc2ncc(-c3cnn(C)c3)nc21` [Savolitinib] + Cc1c2c(nn1C)CSCc1cc(n(C)n1)CSc1cc(c3ccccc3c1)OCCCc1c(C(=O)O)n(C)c3c-2c(Cl)ccc13 [AZD5991] (first compound max 1 µM, 7x7, partner max 1 µM), the “combination Emax” value was 0.961 in [1]; 0.169 in experiment [2]; 0.246 in experiment [3]; 0.156 in [4]; 0.885 in [5]; 0.269 in [6]. For the same compound, the “combination Emax” value in experiment [7] is 0.256; in [8] it was 0.0956; in experiment [9], 0.164; in experiment [10], 0.22; in [11] it was 0.194; in [12] it was 0.18. The “combination Emax” value in [13] worked out at 0.166; in experiment [14], 0.153; in experiment [15], 0.779; in [16], 0.85; in experiment [17], 0.132; in [18] it was 0.503. For the same compound, the “combination Emax” value was 0.228 in experiment [19] and 0.19 in [20].
As to `Cn1cnc2c(F)c(Nc3ccc(Br)cc3Cl)c(C(=O)NOCCO)cc21` [Selumetinib] + C=CCn1c(=O)c2cnc(Nc3ccc(N4CCN(C)CC4)cc3)nc2n1-c1cccc(C(C)(C)O)n1 [AZD1775] (first compound max 10 µM, partner max 1 µM), the “combination Emax” value is 0.623 in [1]; 0.351 in experiment [2]; 0.504 in experiment [3]; 0.655 in experiment [4]; 0.875 in experiment [5]; 0.523 in experiment [6]. Besides, the “combination Emax” value in [7] turned out to be 0.148; in [8], 0.858; in experiment [9], 0.364; in [10] it was 0.779; in experiment [11], 0.39; in experiment [12] it was 0.699. Further, the “combination Emax” value in experiment [13] was 0.419; in experiment [14], 0.682; in experiment [15], 0.589; in [16], 0.397; in experiment [17] it was 0.34; in experiment [18] it was 0.774. For the same compound, the “combination Emax” value in experiment [19] was 0.631; in [20], 0.244.

(Values after the supplement of paper PMC11061612.)
